Test results reported in PMC12112966 (2025).

Legend:
Test in all cases: BLI, immobilised aptamer
[1] = system: JD3-RMM1 (DNA, aptamer) ACTAGGGCAAATCTATACAGTGCCAATTTCA; conditions: 2.7 mM KCl, 1.5 mM KH2PO4, 0.1 M NaCl, 20 mM Na2HPO4, 0.6 mM MgCl2, 0.9 mM CaCl2; selection buffer, pH 7.4; same concentration as AZA-2
[2] = system: JD2-RM3-27C28T (DNA, aptamer) AAAAGACTTAGTGTTGTCCTATGTATCT; conditions: 2.7 mM KCl, 1.5 mM KH2PO4, 0.1 M NaCl, 20 mM Na2HPO4, 0.6 mM MgCl2, 0.9 mM CaCl2; selection buffer, pH 7.4; same concentration as AZA-2
[3] = system: JD-3 (DNA, aptamer) ACTAGTGCAAATCTATTCCTATGTTACAGTGCCAATTTCA; conditions: 2.7 mM KCl, 1.5 mM KH2PO4, 0.1 M NaCl, 20 mM Na2HPO4, 0.6 mM MgCl2, 0.9 mM CaCl2; selection buffer, pH 7.4; BLI response below 0.1 nm
[4] = system: JD-1 (DNA, aptamer) GAATGGACCCGGTATAATTCCCTCAAGAGTGCCAATTTCA; conditions: 2.7 mM KCl, 1.5 mM KH2PO4, 0.1 M NaCl, 20 mM Na2HPO4, 0.6 mM MgCl2, 0.9 mM CaCl2; selection buffer, pH 7.4; BLI response below 0.1 nm
[5] = system: JD-2 (DNA, aptamer) AAAAGACTTAGTGTTGTCCTATGTATAAGTGCCAATTTCA; conditions: 2.7 mM KCl, 1.5 mM KH2PO4, 0.1 M NaCl, 20 mM Na2HPO4, 0.6 mM MgCl2, 0.9 mM CaCl2; selection buffer, pH 7.4; BLI response below 0.1 nm

Measured: binding

C=C1[C@@H](O)[C@@H]2O[C@]3(CC[C@H](/C=C/[C@@H](C)[C@@H]4CC(C)=C[C@@]5(O[C@H](C[C@@](C)(O)C(=O)O)CC[C@H]5O)O4)O3)CC[C@H]2O[C@@H]1[C@@H](O)C[C@H](C)[C@H]1O[C@@]2(CCCCO2)CC[C@H]1C
no: [1] | [2] | [3] | [4] | [5]
